Data from patent US20050130252A1, “Stabilized susceptibility tests of aerobic pathogens” (Wyeth Holdings Corporation, priority 2003, published 2005).
≈ marks a conversion by molar mass, not a printed value. Like-named read-outs stand apart in the source and are kept apart here.

Legend:
[1] = system: clinical isolates and strains expressing various tetracycline resistance determinants; test: Broth microdilution MIC, panel of clinical isolates and tetracycline-resistant strains taken together; type: cell-based; conditions: Table 5 panel
Experimental: The in vitro activities of tigecycline and control antibiotics were determined by the broth microdilution method as recommended by the NCCLS. (National Committee for Clinical Laboratory Standards, 2003. Methods for Dilution Antimicrobial Susceptibility Tests for Bacteria That Grow Aerobically; Approved Standards: M7-A6, Sixth ed, vol. 23., National Committee for Clinical Laboratory Standards Wayne, Pa.) was used for the standard procedures. MBH with 5% lysed horse blood was used for testing S. pneumoniae and Haemophilus Test Medium was used for testing H. influenzae. Oxyrase® (Oxyrase Inc, Mansfield, Ohio) was used according to the manufacturer's instructions by adding 1 ml of Oxyrase® to 50 ml of media. Media age studies were performed by preparing MHB in multiple flasks, then storing the media under various conditions. MICs were usually performed in duplicate on each day of testing. Storage under anaerobic conditions was conducted in an anaerobic chamber (MACS MG 1000, Don Whitley Scientific LTD). The pH of the media was determined by pH meter (Corning 430). A comparison of the in vitro activity of tigecycline by agar and broth dilution methodolgies with and without Oxyrase® against clinical isolates is shown in Table 1. […]

E. coli ATCC 25922 = test: Broth microdilution MIC; type: cell-based, Escherichia coli; conditions: Escherichia coli
Experimental: The process for preparing susceptibility test medium are the following steps: • a. Preparing Mueller Hinton Broth II medium by adding 22 grams powdered media to 1.0 liter distilled water; • b. Autoclaving (121° C., 15 psi, 15 minutes) and cooling the medium; • c. Adding Oxyrase® up to about 10% final volume and keeping at 35-37° C. in an incubator for 30 minutes; • d. Adding about 50 μL to each well of a 96 well microtiter plate; • e. Weighing drug and adding broth to drug to bring up to about (standard 128 μg/ml); • f. Adding 50 μL of the drug to the first column of the titer plate; • g. Diluting by two-fold serial diluting across or down the plate. • h. Preparing a Prompt™ inoculum at 10^8 CFU/ml; • i. Diluting inoculum 1:100 in the broth at […] in 9.9 ml (1:100) is 10^6 colony forming units (CFU) forming the adjusted inoculum; • j. Adding 50 μL of the adjusted inoculum to the wells of the microtiter plate; • k. Incubating the plates at 35-37° C. for 18-22 hours; and • l. Reading, with the unaided eye, the MIC.
The in vitro activities of tigecycline and control antibiotics were determined by the broth microdilution method as recommended by the NCCLS. (National Committee for Clinical Laboratory Standards, 2003. Methods for Dilution Antimicrobial Susceptibility Tests for Bacteria That Grow Aerobically; Approved Standards: M7-A6, Sixth ed, vol. 23., National Committee for Clinical Laboratory Standards Wayne, Pa.) was used for the standard procedures. MBH with 5% lysed horse blood was used for testing S. pneumoniae and Haemophilus Test Medium was used for testing H. influenzae. Oxyrase® (Oxyrase Inc, Mansfield, Ohio) was used according to the manufacturer's instructions by adding 1 ml of Oxyrase® to 50 ml of media. Media age studies were performed by preparing MHB in multiple flasks, then storing the media under various conditions. MICs were usually performed in duplicate on each day of testing. Storage under anaerobic conditions was conducted in an anaerobic chamber (MACS MG 1000, Don Whitley Scientific LTD). The pH of the media was determined by pH meter (Corning 430). A comparison of the in vitro activity of tigecycline by agar and broth dilution methodolgies with and without Oxyrase® against clinical isolates is shown in Table 1.

In the case of CN(C)c1cc(NC(=O)CNC(C)(C)C)c(O)c2c1C[C@H]1C[C@H]3[C@H](N(C)C)C(O)=C(C(N)=O)C(=O)[C@@]3(O)C(O)=C1C2=O [Tigecycline, tigecycline], the “MICs in fresh media lower than in aged media” value [1] is reported as 1 to 3 dilutions, the MIC (E. coli ATCC 25922; ATCC25922, 0 h, E. coli ATCC 25922, Day 0, Pre-prepared media, room temperature, N = 6) is reported as 0.12 µg/mL (≈ 0.205 µM) and the MIC (E. coli ATCC 25922; ATCC25922, 0 h, E. coli ATCC 25922, Day 0, media Fresh from Powder 2° C., N = 6) is reported as 0.03 to 0.06 µg/mL (≈ 0.0512 to 0.102 µM). It also gave an MIC (E. coli ATCC 25922; ATCC25922, 0 h, E. coli ATCC 25922, Day 0, media Fresh from Powder, room temperature, N = 6) of 0.03 µg/mL (≈ 0.0512 µM), an MIC (E. coli ATCC 25922; ATCC25922, 24 h, E. coli ATCC 25922, Day 1, Pre-prepared media, room temperature, N = 6) of 0.12 to 0.25 µg/mL (≈ 0.205 to 0.427 µM) and an MIC (E. coli ATCC 25922; ATCC25922, 24 h, E. coli ATCC 25922, Day 1, media Fresh from Powder 2° C., N = 6) of 0.03 to 0.06 µg/mL (≈ 0.0512 to 0.102 µM). It also gave an MIC (E. coli ATCC 25922; ATCC25922, 24 h, E. coli ATCC 25922, Day 1, media Fresh from Powder, room temperature, N = 6) of 0.06 µg/mL (≈ 0.102 µM), an MIC (E. coli ATCC 25922; ATCC25922, 168 h, E. coli ATCC 25922, Day 7, Pre-prepared media, room temperature, N = 6) of 0.12 to 0.25 µg/mL (≈ 0.205 to 0.427 µM) and an MIC (E. coli ATCC 25922; ATCC25922, 168 h, E. coli ATCC 25922, Day 7, media Fresh from Powder 2° C., N = 6) of 0.06 µg/mL (≈ 0.102 µM). For the same compound, the MIC (E. coli ATCC 25922; ATCC25922, 168 h, E. coli ATCC 25922, Day 7, media Fresh from Powder, room temperature, N = 6) was 0.12 µg/mL (≈ 0.205 µM), the MIC (E. coli ATCC 25922; ATCC25922, 336 h, E. coli ATCC 25922, Day 14, Pre-prepared media, room temperature, N = 6) was 0.12 to 0.25 µg/mL (≈ 0.205 to 0.427 µM) and the MIC (E. coli ATCC 25922; ATCC25922, 336 h, E. coli ATCC 25922, Day 14, media Fresh from Powder 2° C., N = 6) was 0.12 to 0.25 µg/mL (≈ 0.205 to 0.427 µM). It also gave an MIC (E. coli ATCC 25922; ATCC25922, 336 h, E. coli ATCC 25922, Day 14, media Fresh from Powder, room temperature, N = 6) of 0.12 to 0.25 µg/mL (≈ 0.205 to 0.427 µM), an MIC (E. coli ATCC 25922; ATCC25922, 336 h, read-out: Minimal Inhibitory Concentration, E. coli ATCC 25922, media Aged Aerobic (2 weeks at RT under room air), N = 4) of 0.12 to 0.25 µg/mL (≈ 0.205 to 0.427 µM) and an MIC (E. coli ATCC 25922; ATCC25922, 504 h, E. coli ATCC 25922, Day 21, media Fresh from Powder 2° C., N = 6) of 0.25 µg/mL (≈ 0.427 µM). The MIC (E. coli ATCC 25922; ATCC25922, 504 h, E. coli ATCC 25922, Day 21, media Fresh from Powder, room temperature, N = 6) was 0.12 to 0.25 µg/mL (≈ 0.205 to 0.427 µM), the MIC (E. coli ATCC 25922; ATCC25922, 672 h, E. coli ATCC 25922, Day 28, Pre-prepared media, room temperature, N = 6) was 0.12 to 0.25 µg/mL (≈ 0.205 to 0.427 µM) and the MIC (E. coli ATCC 25922; ATCC25922, 672 h, E. coli ATCC 25922, Day 28, media Fresh from Powder 2° C., N = 6) was 0.12 µg/mL (≈ 0.205 µM). The MIC (E. coli ATCC 25922; ATCC25922, 672 h, E. coli ATCC 25922, Day 28, media Fresh from Powder, room temperature, N = 6) was 0.12 to 0.25 µg/mL (≈ 0.205 to 0.427 µM), the MIC (E. coli ATCC 25922; ATCC25922, read-out: Minimal Inhibitory Concentration (modal value), E. coli ATCC 25922, Aged Media + Oxyrase, N = 8) was 0.12 µg/mL and the MIC (E. coli ATCC 25922; ATCC25922, read-out: Minimal Inhibitory Concentration (modal value), E. coli ATCC 25922, Aged media, N = 8) was 0.25 µg/mL (≈ 0.427 µM). It also gave an MIC (E. coli ATCC 25922; ATCC25922, read-out: Minimal Inhibitory Concentration (modal value), E. coli ATCC 25922, Fresh Media + Oxyrase, N = 8) of 0.12 µg/mL, an MIC (E. coli ATCC 25922; ATCC25922, read-out: Minimal Inhibitory Concentration (modal value), E. coli ATCC 25922, Freshly Prepared Media, N = 8) of 0.12 µg/mL (≈ 0.205 µM) and an MIC (E. coli ATCC 25922; ATCC25922, read-out: Minimal Inhibitory Concentration, E. coli ATCC 25922, 2% Oxyrase) of 0.03 µg/mL (≈ 0.0512 µM). The MIC (E. coli ATCC 25922; ATCC25922, read-out: Minimal Inhibitory Concentration, E. coli ATCC 25922, Aged Media + Oxyrase, N = 8) was 0.12 to 0.25 µg/mL, the MIC (E. coli ATCC 25922; ATCC25922, read-out: Minimal Inhibitory Concentration, E. coli ATCC 25922, Aged media, N = 8) was 0.25 to 0.5 µg/mL (≈ 0.427 to 0.854 µM) and the MIC (E. coli ATCC 25922; ATCC25922, read-out: Minimal Inhibitory Concentration, E. coli ATCC 25922, Commercially Prepared media, N = 4) was 0.12 to 0.25 µg/mL (≈ 0.205 to 0.427 µM). The MIC (E. coli ATCC 25922; ATCC25922, read-out: Minimal Inhibitory Concentration, E. coli ATCC 25922, Fresh Media + Oxyrase, N = 8) was 0.06 to 0.12 µg/mL, the MIC (E. coli ATCC 25922; ATCC25922, read-out: Minimal Inhibitory Concentration, E. coli ATCC 25922, Freshly Prepared Media, N = 8) was 0.12 to 0.25 µg/mL (≈ 0.205 to 0.427 µM) and the MIC (E. coli ATCC 25922; ATCC25922, read-out: Minimal Inhibitory Concentration, E. coli ATCC 25922, Freshly Prepared media, N = 4) was 0.03 µg/mL (≈ 0.0512 µM). The MIC (E. coli ATCC 25922; ATCC25922, read-out: Minimal Inhibitory Concentration, E. coli ATCC 25922, MHB II + 0.05% Catalase) was 0.5 µg/mL, the MIC (E. coli ATCC 25922; ATCC25922, read-out: Minimal Inhibitory Concentration, E. coli ATCC 25922, MHB II + 0.05% L-ascorbic Acid) was 2 µg/mL and the MIC (E. coli ATCC 25922; ATCC25922, read-out: Minimal Inhibitory Concentration, E. coli ATCC 25922, MHB II + 0.05% L-cysteine) was 0.5 µg/mL. It also gave an MIC (E. coli ATCC 25922; ATCC25922, read-out: Minimal Inhibitory Concentration, E. coli ATCC 25922, MHB II + 0.05% Sodium Pyruvate) of 0.12 µg/mL, an MIC (E. coli ATCC 25922; ATCC25922, read-out: Minimal Inhibitory Concentration, E. coli ATCC 25922, MHB II + 0.05% Thioglycolate) of 0.12 µg/mL and an MIC (E. coli ATCC 25922; ATCC25922, read-out: Minimal Inhibitory Concentration, E. coli ATCC 25922, MHB II + 2% Oxyrase) of 0.06 µg/mL.
